Source: patent publication US5516525A, “Vitamin D derivative feed compositions and methods of use” (University of Georgia Research Foundation, Inc., priority 1994, dated 1996)
“And” between values parts separate entries of the source, which are not always exact repeats. Equal values may be shown once.

How the values were obtained:
phytate phosphorus = assay: phytate (IP4, IP5, IP6) in feces, ferric chloride and HPLC procedures; type: in vivo, chicken (Petersen X Arbor Acre cockerels)
tibial dyschondroplasia = conditions: chickens, dietary level; cited from earlier work
bone ash = bone ash of left tibia (Example 1); conditions: in words
Source text: The left tibia was removed for bone ash determination on the fat-free bone.

[1] = test system: phosphorus deficient rickets; assay: phosphorus deficient rickets (Example 1); conditions: in words, Exp 1
Source text: The birds were also scored for phosphorus deficient rickets at the same time they were scored for tibial dyschondroplasia. Chickens which had normal proliferating prehypertrophied zone and a lengthened metaphyseal primary spongiosa were classified as phosphorus deficient rickets.
Ri is an abbreviation for rickets incidence.

[2] = blood plasma total calcium and dialyzable phosphorus; conditions: in words, Exp 1
Procedure: (§1) Ten newly hatched birds were randomly placed in each section of the Petersime batteries until the birds were nine days old. The measurements described below were calculated on a pen basis; all statistical analyses were conducted on pen averages. Blood samples were taken by cardiac puncture with heparinized syringes from one randomly chosen bird from each pen on the ninth day before weighing the birds.

[3] = 9-day body weight, feed consumption and gain:feed (Example 1); conditions: in words
Procedure: Newly hatched Petersen X Arbor Acre cockerels obtained from a commercial hatchery were used. Animals were housed in electrically heated Petersime battery brooders with wire-mesh floors located in a room in which the temperature was maintained at 22° C., fluorescent lights were on 24 hours each day in the room and the cages, and sunlight was present during the day from large windows. No attempt was made to limit the natural production of vitamin D3. Feed and water were available to the chickens at all times.
as §1
At nine days of age, pen body weights were obtained for all birds and their feed consumption was recorded. […] Briefly, using a three week old chicken as the reference animal, a score of zero indicates normal cartilage which is narrow with little irregularities. […] Deep irregularities are apparent. A score of three indicates a large mass of cartilage in the proximal end of the tibia. The birds were also scored for phosphorus deficient rickets at the same time they were scored for tibial dyschondroplasia. Chickens which had normal proliferating prehypertrophied zone and a lengthened metaphyseal primary spongiosa were classified as phosphorus deficient rickets. The left tibia was removed for bone ash determination on the fat-free bone.

[4] = test system: conversion of 25(OH)D3 to 1,25(OH)2 D3; conditions: chickens made acidotic; cited from earlier work

Structure (SMILES) | Feces excreted (phytate phosphorus; in vivo) | IP5 excretion, percent of total phytin phosphorus (phytate phosphorus; in vivo) | IP6 excretion, percent of total phytin phosphorus (phytate phosphorus; in vivo) | IP6 phytate phosphorus in feces by HPLC (phytate phosphorus; in vivo) | Phytate phosphorus retention, FeCl3 (phytate phosphorus; in vivo) | Phytate phosphorus retention, HPLC (phytate phosphorus; in vivo) | Phytin phosphorus retained (100 - total excreted) (phytate phosphorus; in vivo) | Total phytate phosphorus in feces by HPLC (phytate phosphorus; in vivo) | Total phytin phosphorus excreted (phytate phosphorus; in vivo) | amount of phosphorus in the feces (phytate phosphorus; in words, Exp 1) | tibial dyschondroplasia (effect of dietary factor) (tibial dyschondroplasia) | bone ash (bone ash) | incidence of phosphorus-deficient rickets [1] | blood plasma phosphorus [2] | nine day weight ([3]; Example 1) | gain:feed ratio ([3]; Exp 1) | conversion of 25(OH)D3 to 1,25(OH)2 D3 [4]
O.O=P([O-])([O-])O.[Na+].[Na+] [P, Na2 HPO4 H2 O] | 451 and 602 and 606 | 5.76% and 2.70% and 6.87% | 46.92% and 37.06% and 46.00% | 3.99 mg/g and 3.03 mg/g and 3.68 mg/g | 47 and 68 and 51 | 47 and 60 and 46 | 46.7% and 59.5% and 45.9% | 4.54 mg/g and 3.32 mg/g and 4.35 mg/g | 53.4% and 40.6% and 54.4% | approximately the same | accentuate the development of the lesions | increased | decreased | increased | increased nine day weights | increased | 
Cl.N [ammonium chloride] |  |  |  |  |  |  |  |  |  |  |  |  |  |  |  |  | reduced conversion
